Source: publication PMC6792352, “Limited Chemical Structural Diversity Found to Modulate Thyroid Hormone Receptor in the Tox21 Chemical Library” (Environmental Health Perspectives, 2019)
Where a name gives a salt, the structure may show the parent alone.

Assay: in vitro
Settings: rat, gh3-tre-luc cells, AC50 (uM) modified / 1000

`C=C(C)CNCC` [N-Ethyl-2-methylallylamine] and `C=C(C)C(=O)O` [Methacrylic acid] cannot be ordered by CC50 at 24 h: greater than 90 µM for the first, greater than 90 µM for the second.

`CCC(C)(C)C` [2,2-Dimethylbutane] and `CC(C)(N)CO` [2-Amino-2-methylpropan-1-ol] cannot be ordered by CC50 at 24 h: greater than 100 µM for the first, greater than 90 µM for the second.

`CCCCc1ccccc1` [Butylbenzene] and `O=CCc1ccccc1` [Phenylacetaldehyde] cannot be ordered by CC50 at 24 h: greater than 90 µM for the first, greater than 90 µM for the second.

`Cc1cccc(Cc2c[nH]cn2)c1C` [Detomidine hydrochloride] and `O=[N+]([O-])c1cccc2cccnc12` [8-Nitroquinoline] cannot be ordered by CC50 at 24 h: greater than 50 µM for the first, greater than 90 µM for the second.

First: Cc1ccc(N=Nc2c(O)c(C(=O)O)cc3ccccc23)c(S(=O)(=O)O)c1 [D&C Red No. 7]
Second: CCCCc1cc2c(=O)c(C(=O)OC)c[nH]c2cc1OCc1ccccc1 [Nequinate]
The CC50 at 24 h of the first is lower: 27.6 µM for the first, greater than 50 µM for the second.

Compared with `CCN=C1C=CC(=C(c2ccc(N(CC)CC)cc2)c2ccc(N(CC)CC)cc2)c2ccccc21` [Basic Blue 7], `CCCc1nc2c(C)cc(-c3nc4ccccc4n3C)cc2n1Cc1ccc(-c2ccccc2C(=O)O)cc1` [Telmisartan] is higher in CC50 at 24 h: 0.714 µM for the first, greater than 50 µM for the second.

`N#Cc1c(Cl)cccc1Cl` [Dichlobenil] and `Clc1ccccc1Cl` [1,2-Dichlorobenzene] cannot be ordered by CC50 at 24 h: greater than 90 µM for the first, greater than 90 µM for the second.

`C=CCc1cc(OC)c(O)c(C(=O)NCCO)c1` [Alibendol] and `COc1cc(N)ccc1C` [3-Methoxy-4-methylaniline] cannot be ordered by CC50 at 24 h: greater than 50 µM for the first, greater than 90 µM for the second.

`O=C(O)CC(C(=O)O)C(CC(=O)O)C(=O)O` (centres unmarked) [1,2,3,4-Butanetetracarboxylic acid] and `NC(CCC(=O)O)C(=O)O` (racemic) [DL-Glutamic acid monohydrate] cannot be ordered by CC50 at 24 h: greater than 90 µM for the first, greater than 80 µM for the second.

`NC(N)=NCCCCN=C(N)N` [1,1'-Tetramethylenediguanidine sulfate] and `C=CC(=O)OCCCCCCCC` [Octyl prop-2-enoate] cannot be ordered by CC50 at 24 h: greater than 50 µM for the first, greater than 90 µM for the second.

`O=C(CCC1CCN(Cc2ccccc2)CC1)c1ccc2c(c1)NCCCC2` [Zanapezil fumerate] and `O=C1CN=C(c2ccccc2)c2cc(Cl)ccc2N1CC1CC1` [Prazepam] cannot be ordered by CC50 at 24 h: greater than 50 µM for the first, greater than 90 µM for the second.

`CC1CCCNC1` (centres unmarked) [3-Methylpiperidine] and `CC(C)[C@@H]1CC[C@@H](C)C[C@H]1O` [Menthol] cannot be ordered by CC50 at 24 h: greater than 90 µM for the first, greater than 90 µM for the second.

`CC(C)(C)C(=O)NCCCC(=O)O` [Pivagabine] and `NS(=O)(=O)c1ccc(NC(=O)CCC(=O)O)cc1` [Sulfasuccinamide] cannot be ordered by CC50 at 24 h: greater than 50 µM for the first, greater than 50 µM for the second.

`CCOC(=O)c1ccc(OCCN2C[C@H](O)[C@@H](O)[C@H](O)[C@H]2CO)cc1` [Emiglitate] and `CCCc1ccc(C(=O)O)cc1` [4-Propylbenzoic acid] cannot be ordered by CC50 at 24 h: greater than 50 µM for the first, greater than 50 µM for the second.

`C=C[Si](OC(=C)C)(OC(=C)C)OC(=C)C` [Ethenyl[tris(prop-1-en-2-yloxy)]silane] and `C=C/C(C)=C/C/C=C(\C)CCC=C(C)C` [alpha-Farnesene] cannot be ordered by CC50 at 24 h: greater than 90 µM for the first, greater than 90 µM for the second.

First: CN(C[C@@H](CC[N+]12CCC(C3CCCCC3)(CC1)CC2)c1ccc(Cl)c(Cl)c1)C(=O)c1cc(C(F)(F)F)cc(C(F)(F)F)c1 [UK-337312]
Second: CN(C)CCCN1c2ccccc2Sc2ccc(C(F)(F)F)cc21 [Triflupromazine hydrochloride]
The CC50 at 24 h of the first is 1.9-fold higher: 17 µM for the first, 9.02 µM for the second.

`Nc1ncnc(Nc2ccc(Cl)cc2)n1` [Chlorazanil] and `O=C1c2ccccc2C(=O)C1c1ccc(Cl)cc1` [Clorindione] cannot be ordered by CC50 at 24 h: greater than 50 µM for the first, greater than 50 µM for the second.

`C[C@]12CCC(=O)C=C1CC[C@@H]1[C@@H]2CC[C@@]2(C)[C@H]1CC[C@]2(O)C(=O)CO` [Cortodoxone] and `CN(C)[C@@H]1C(O)=C(C(=O)NCN2CCCC2)C(=O)[C@@]2(O)C(O)=C3C(=O)c4c(O)cccc4[C@@](C)(O)[C@H]3C[C@@H]12` [Rolitetracycline] cannot be ordered by CC50 at 24 h: greater than 50 µM for the first, greater than 20 µM for the second.

Going from `Cc1oc(-c2ccccc2)nc1CCOc1ccc(C[C@H](Nc2ccccc2C(=O)c2ccccc2)C(=O)O)cc1` [Farglitazar] to `O=P(c1ccccc1)(c1ccccc1)c1ccccc1` [Triphenylphosphine oxide], the CC50 at 24 h rises from 25 µM to greater than 90 µM.

`C/C=C/C1=C(C(=O)O)N2C(=O)[C@@H](NC(=O)[C@H](N)c3ccc(O)cc3)[C@H]2SC1` [Cefprozil monohydrate] and `CC(=O)Nc1ccc(O)cc1` [Acetaminophen] cannot be ordered by CC50 at 24 h: greater than 50 µM for the first, greater than 50 µM for the second.

`CCC(C)N` (centres unmarked) [2-Butanamine] and `CC(=O)CCC(C)C` [5-Methyl-2-hexanone] cannot be ordered by CC50 at 24 h: greater than 90 µM for the first, greater than 90 µM for the second.

Going from `CC1=C(C/C=C(\C)CCC[C@H](C)CCC[C@H](C)CCCC(C)C)C(=O)c2ccccc2C1=O` [Phytonadione] to `Cc1nnc2n1-c1sc(CCc3ccc(CC(C)C)cc3)cc1C(c1ccccc1Cl)=NC2C` (centres unmarked) [Israpafant], the CC50 at 24 h falls from greater than 50 µM to 13.6 µM.

First: CN(C)CCCN1c2ccccc2Sc2ccc(Cl)cc21 [Chlorpromazine hydrochloride]
Second: CC(CN(C)C)CN1c2ccccc2S(=O)(=O)c2ccccc21 (centres unmarked) [Oxomemazine hydrochloride]
The CC50 at 24 h of the first is 3.6-fold lower: 10.6 µM for the first, 37.7 µM for the second.

`Cc1occc1SSc1ccoc1C` [Bis(2-methyl-3-furyl)disulfide] and `CC(C)Nc1ccccc1` [N-Isopropylaniline] cannot be ordered by CC50 at 24 h: greater than 90 µM for the first, greater than 90 µM for the second.

`C=C[C@H]1C[N@@]2CC[C@H]1C[C@H]2[C@H](O)c1ccnc2ccc(OC)cc12` [Quinine hemisulfate salt monohydrate] and `COc1ccccc1/C=C/C=O` [trans-2-Methoxycinnamaldehyde] cannot be ordered by CC50 at 24 h: greater than 50 µM for the first, greater than 90 µM for the second.

First: CC(C)(O)c1ccccc1CC[C@@H](SCC1(CC(=O)O)CC1)c1cccc(/C=C/c2ccc3ccc(Cl)cc3n2)c1 [Montelukast sodium]
Second: Cc1oc2c(NC(=O)c3c(Cl)cccc3Cl)cccc2c1C(C)(C)O [FR167356]
The CC50 at 24 h of the first is 1.8-fold higher: 35.1 µM for the first, 19.6 µM for the second.

`CC(O)CN(CCCN(C)C)CCCN(C)C` (centres unmarked) [1-{Bis[3-(dimethylamino)propyl]amino}propan-2-ol] and `CCCCCCCCS(=O)(=O)O` [Sodium 1-octanesulfonate] cannot be ordered by CC50 at 24 h: greater than 90 µM for the first, greater than 90 µM for the second.

`COP(=S)(OC)Oc1ccc([N+](=O)[O-])c(C)c1` [Fenitrothion] and `O=C(Cl)c1cccc([N+](=O)[O-])c1` [3-Nitrobenzoyl chloride] cannot be ordered by CC50 at 24 h: greater than 90 µM for the first, greater than 90 µM for the second.

`C=C(C)C(=O)OCCOP(=O)(O)OCCOC(=O)C(=C)C` [Bis(methacryloyloxyethyl) hydrogen phosphate] and `CCOC(=O)CC(CC(=O)OCC)(OC(C)=O)C(=O)OCC` [Acetyltriethyl citrate] cannot be ordered by CC50 at 24 h: greater than 90 µM for the first, greater than 90 µM for the second.

`CS(=O)(=O)OC[C@H](O)[C@@H](O)COS(C)(=O)=O` [Treosulfan] and `C=CCOCC(O)CO` (centres unmarked) [Glycerol 1-allylether] cannot be ordered by CC50 at 24 h: greater than 50 µM for the first, greater than 90 µM for the second.

Compared with `O=S1(=O)c2cccc3cccc(c23)N1CCCN1CCN(c2ccc(F)cc2)CC1` [Fananserin], `Cc1nc2sccn2c(=O)c1CCN1CCC(=C(c2ccc(F)cc2)c2ccc(F)cc2)CC1` [Ritanserin] is lower in CC50 at 24 h: greater than 50 µM for the first, 28.7 µM for the second.

`c1cc(CCCc2ccncc2)ccn1` [4,4'-Propane-1,3-diyldipyridine] and `NC(=O)Oc1ccc(Cc2ccccc2)cc1` [Diphenan] cannot be ordered by CC50 at 24 h: greater than 90 µM for the first, greater than 50 µM for the second.

`Nc1cccc(N)n1` [2,6-Diaminopyridine] and `Clc1ccnc(Cl)n1` [2,4-Dichloropyrimidine] cannot be ordered by CC50 at 24 h: greater than 90 µM for the first, greater than 90 µM for the second.

`C=CCNC(N)=S` [Allylthiourea] and `CC/C=C\CCO` [(Z)-3-Hexen-1-ol] cannot be ordered by CC50 at 24 h: greater than 90 µM for the first, greater than 90 µM for the second.

Compared with `Cc1cc(O)c(C(C)(C)C)cc1Sc1cc(C(C)(C)C)c(O)cc1C` [4,4'-Thiobis(6-tert-butyl-m-cresol)], `COc1cc(C)c(Cc2cnc(N)nc2N)cc1OC` [Ormetoprim] is higher in CC50 at 24 h: 3.64 µM for the first, greater than 50 µM for the second.

`O=C1c2c(O)cccc2[C@H]([C@@H]2O[C@H](CO)[C@@H](O)[C@H](O)[C@H]2O)c2cc(CO)cc(O)c21` [Aloin A] and `CC[N+](C)(CC)CCOC(=O)C(O)(c1ccccc1)c1ccccc1` [Benzactyzine methobromide] cannot be ordered by CC50 at 24 h: greater than 50 µM for the first, greater than 50 µM for the second.

`O=C(O)[C@@H]1CSCN1` [L-Thioproline] and `CCCCCCC(O)CCCCCCCCCCC(=O)O` (centres unmarked) [12-Hydroxyoctadecanoic acid] cannot be ordered by CC50 at 24 h: greater than 50 µM for the first, greater than 90 µM for the second.

`CCNc1nc(NC(C)CC)nc(OC)n1` (centres unmarked) [Secbumeton] and `CCCCNC(=O)NS(=O)(=O)c1ccc(C)cc1` [Tolbutamide] cannot be ordered by CC50 at 24 h: greater than 90 µM for the first, greater than 90 µM for the second.

Compared with `O=[N+]([O-])c1cc(C(F)(F)F)c(Cl)c([N+](=O)[O-])c1Cl` [2,4-Dichloro-1,3-dinitro-5-(trifluoromethyl)benzene], `O=S1(=O)CC(Cl)(Cl)C(Cl)(Cl)C1` [3,3,4,4-Tetrachlorotetrahydrothiophene 1,1-dioxide] is 2.3-fold lower in CC50 at 24 h: 2.31 µM for the first, 1.02 µM for the second.

`CCCCCCCCCCCCI` [1-Iodododecane] and `CCCn1cc[n+](C)c1` [1-Methyl-3-propylimidazolium iodide] cannot be ordered by CC50 at 24 h: greater than 90 µM for the first, greater than 90 µM for the second.

Same assay, conditions: rat, gh3-tre-luc cells, AC50 (uM) modified / 1000, Tox21_110001=Tox21_110079; viability, 1 nM T3 present, 24 h

`COC(=O)C1=CCCN(C)C1` [Arecoline] showed a CC50 at 24 h greater than 50 µM.

Same assay, conditions: rat, gh3-tre-luc cells, AC50 (uM) modified / 1000, Tox21_110001=Tox21_112495; viability, 1 nM T3 present, 24 h

Molecule `C[C@]12CC[C@H]3[C@@H](CC=C4C[C@@H](O)CC[C@@]43C)[C@@H]1CC[C@@H]2O` [Androstenediol] has a CC50 at 24 h greater than 50 µM.

Same assay, conditions: rat, gh3-tre-luc cells, AC50 (uM) modified / 1000, Tox21_110001=Tox21_200649; viability, 1 nM T3 present, 24 h

Work on `CNC(=O)Oc1cc(C)c(N(C)C)c(C)c1` [Mexacarbate] yielded a CC50 at 24 h greater than 90 µM.

Same assay, conditions: rat, gh3-tre-luc cells, AC50 (uM) modified / 1000, Tox21_110001=Tox21_200693; viability, 1 nM T3 present, 24 h

With `Cn1c(N)nc2c3cccnc3ccc21` [2-Amino-3-methyl-3H-imidazo[4,5-f]quinoline] the CC50 at 24 h was 36.1 µM.

Same assay, conditions: rat, gh3-tre-luc cells, AC50 (uM) modified / 1000, Tox21_110001=Tox21_200724; viability, 1 nM T3 present, 24 h

For `ClC(Cl)(Cl)C(Cl)(Cl)Cl` [Hexachloroethane], the CC50 at 24 h was greater than 90 µM.

Same assay, conditions: rat, gh3-tre-luc cells, AC50 (uM) modified / 1000, Tox21_110001=Tox21_201556; viability, 1 nM T3 present, 24 h

For `N#CC(c1ccccc1)c1ccccc1` [Diphenylacetonitrile], the CC50 at 24 h was greater than 90 µM.
